Laboratory results as given in the supplement of paper PMC10307832.

Tests used:
Assay in all cases: relative viability (nuclei count vs DMSO), 5 days (fraction); higher = more cells survive
ChaGo-K-1 = test system: ChaGo-K-1
In short: (§1)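 Lung cancer cell lines were pin-tool dosed in 1536-well plates on the day after seeding, with either a lone drug or a fixed anchor-drug dose plus five library-drug doses (not always all listed) in √10 steps. Nuclei were counted on 4× images after 5 days. Relative viability is the ratio of treated-well to vehicle-well nuclei counts, with each value a median of duplicate plates.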

EKVX = test system: EKVX
In short: as §1

EMC-BAC-2 = test system: EMC-BAC-2
In short: as §1

H3255 = test system: H3255
In short: as §1

HARA = test system: HARA
In short: as §1

HCC-15 = test system: HCC-15
In short: as §1

HCC-827 = test system: HCC-827
In short: as §1

LC-2-ad = test system: LC-2-ad
In short: as §1

LCLC-97TM1 = test system: LCLC-97TM1
In short: as §1

LU99A = test system: LU99A
In short: as §1

NCI-H1437 = test system: NCI-H1437
In short: as §1

NCI-H1792 = test system: NCI-H1792
In short: as §1

NCI-H1793 = test system: NCI-H1793
In short: as §1

NCI-H1915 = test system: NCI-H1915
In short: as §1

NCI-H1944 = test system: NCI-H1944
In short: as §1

NCI-H2126 = test system: NCI-H2126
In short: as §1

NCI-H23 = test system: NCI-H23
In short: as §1

NCI-H322M = test system: NCI-H322M
In short: as §1

NCI-H441 = test system: NCI-H441
In short: as §1

NCI-H460 = test system: NCI-H460
In short: as §1

NCI-H522 = test system: NCI-H522
In short: as §1

NCI-H661 = test system: NCI-H661
In short: as §1

PC-3 [JPC-3] = test system: PC-3 [JPC-3]
In short: as §1

SK-LU-1 = test system: SK-LU-1
In short: as §1

SW 900 = test system: SW 900
In short: as §1

## CCCCCCCCCCCC1=C(O)C(=O)C=C(O)C1=O [Embelin] + Cc1nc(Nc2ncc(C(=O)Nc3c(C)cccc3Cl)s2)cc(N2CCN(CCO)CC2)n1 [Dasatinib] (partner 0.075 µM)
ChaGo-K-1; first compound 0.08 µM
  relative viability: 0.501
ChaGo-K-1; first compound 0.8 µM
  relative viability: 0.576
ChaGo-K-1; first compound 2.53 µM
  relative viability: 0.585
ChaGo-K-1; first compound 8 µM
  relative viability: 0.582
EKVX; first compound 0.08 µM
  relative viability: 0.564
EKVX; first compound 0.8 µM
  relative viability: 0.724
EKVX; first compound 2.53 µM
  relative viability: 0.576
EKVX; first compound 8 µM
  relative viability: 0.555
EMC-BAC-2; first compound 0.08 µM
  relative viability: 0.304
EMC-BAC-2; first compound 0.8 µM
  relative viability: 0.46
EMC-BAC-2; first compound 2.53 µM
  relative viability: 0.341
EMC-BAC-2; first compound 8 µM
  relative viability: 0.291
H3255; first compound 0.08 µM
  relative viability: 0.355
H3255; first compound 0.8 µM
  relative viability: 0.378
H3255; first compound 2.53 µM
  relative viability: 0.298
H3255; first compound 8 µM
  relative viability: 0.456
HARA; first compound 0.08 µM
  relative viability: 0.25
HARA; first compound 0.8 µM
  relative viability: 0.329
HARA; first compound 2.53 µM
  relative viability: 0.279
HARA; first compound 8 µM
  relative viability: 0.272
HCC-15; first compound 0.08 µM
  relative viability: 0.592
HCC-15; first compound 0.8 µM
  relative viability: 0.628
HCC-15; first compound 2.53 µM
  relative viability: 0.711
HCC-15; first compound 8 µM
  relative viability: 0.582
HCC-827; first compound 0.08 µM
  relative viability: 0.333
HCC-827; first compound 0.8 µM
  relative viability: 0.406
HCC-827; first compound 2.53 µM
  relative viability: 0.404
HCC-827; first compound 8 µM
  relative viability: 0.321
LC-2-ad; first compound 0.08 µM
  relative viability: 0.596
LC-2-ad; first compound 0.8 µM
  relative viability: 0.837
LC-2-ad; first compound 2.53 µM
  relative viability: 0.823
LC-2-ad; first compound 8 µM
  relative viability: 0.412
LCLC-97TM1; first compound 0.08 µM
  relative viability: 1.05
LCLC-97TM1; first compound 0.8 µM
  relative viability: 0.668
LCLC-97TM1; first compound 2.53 µM
  relative viability: 0.916
LCLC-97TM1; first compound 8 µM
  relative viability: 0.912
LU99A; first compound 0.08 µM
  relative viability: 0.572
LU99A; first compound 0.8 µM
  relative viability: 0.759
LU99A; first compound 2.53 µM
  relative viability: 0.643
LU99A; first compound 8 µM
  relative viability: 0.515
NCI-H1437; first compound 0.08 µM
  relative viability: 0.407
NCI-H1437; first compound 0.8 µM
  relative viability: 0.459
NCI-H1437; first compound 2.53 µM
  relative viability: 0.337
NCI-H1437; first compound 8 µM
  relative viability: 0.275
NCI-H1792; first compound 0.08 µM
  relative viability: 0.771
NCI-H1792; first compound 0.8 µM
  relative viability: 0.803
NCI-H1792; first compound 2.53 µM
  relative viability: 0.792
NCI-H1792; first compound 8 µM
  relative viability: 0.867
NCI-H1793; first compound 0.08 µM
  relative viability: 0.397
NCI-H1793; first compound 0.8 µM
  relative viability: 0.432
NCI-H1793; first compound 2.53 µM
  relative viability: 0.446
NCI-H1793; first compound 8 µM
  relative viability: 0.334
NCI-H1915; first compound 0.08 µM
  relative viability: 0.309
NCI-H1915; first compound 0.8 µM
  relative viability: 0.361
NCI-H1915; first compound 2.53 µM
  relative viability: 0.321
NCI-H1915; first compound 8 µM
  relative viability: 0.335
NCI-H1944; first compound 0.08 µM
  relative viability: 0.2
NCI-H1944; first compound 0.8 µM
  relative viability: 0.221
NCI-H1944; first compound 2.53 µM
  relative viability: 0.245
NCI-H1944; first compound 8 µM
  relative viability: 0.195
NCI-H2126; first compound 0.08 µM
  relative viability: 0.615
NCI-H2126; first compound 0.8 µM
  relative viability: 0.684
NCI-H2126; first compound 2.53 µM
  relative viability: 0.714
NCI-H2126; first compound 8 µM
  relative viability: 0.502
NCI-H23; first compound 0.08 µM
  relative viability: 0.82
NCI-H23; first compound 0.8 µM
  relative viability: 0.755
NCI-H23; first compound 2.53 µM
  relative viability: 1.08
NCI-H23; first compound 8 µM
  relative viability: 0.612
NCI-H322M; first compound 0.08 µM
  relative viability: 0.26
NCI-H322M; first compound 0.8 µM
  relative viability: 0.263
NCI-H322M; first compound 2.53 µM
  relative viability: 0.261
NCI-H322M; first compound 8 µM
  relative viability: 0.232
NCI-H441; first compound 0.08 µM
  relative viability: 0.645
NCI-H441; first compound 0.8 µM
  relative viability: 0.633
NCI-H441; first compound 2.53 µM
  relative viability: 0.686
NCI-H441; first compound 8 µM
  relative viability: 0.838
NCI-H460; first compound 0.08 µM
  relative viability: 0.58
NCI-H460; first compound 0.8 µM
  relative viability: 0.57
NCI-H460; first compound 2.53 µM
  relative viability: 0.571
NCI-H460; first compound 8 µM
  relative viability: 0.416
NCI-H522; first compound 0.08 µM
  relative viability: 0.849
NCI-H522; first compound 0.8 µM
  relative viability: 0.914
NCI-H522; first compound 2.53 µM
  relative viability: 1.02
NCI-H522; first compound 8 µM
  relative viability: 0.859
NCI-H661; first compound 0.08 µM
  relative viability: 0.852
NCI-H661; first compound 0.8 µM
  relative viability: 1.08
NCI-H661; first compound 2.53 µM
  relative viability: 0.99
NCI-H661; first compound 8 µM
  relative viability: 0.703
PC-3 [JPC-3]; first compound 0.08 µM
  relative viability: 1.02
PC-3 [JPC-3]; first compound 0.8 µM
  relative viability: 1.05
PC-3 [JPC-3]; first compound 2.53 µM
  relative viability: 1.12
PC-3 [JPC-3]; first compound 8 µM
  relative viability: 0.966
SK-LU-1; first compound 0.08 µM
  relative viability: 0.192
SK-LU-1; first compound 0.8 µM
  relative viability: 0.191
SK-LU-1; first compound 2.53 µM
  relative viability: 0.199
SK-LU-1; first compound 8 µM
  relative viability: 0.138
SW 900; first compound 0.08 µM
  relative viability: 0.666
SW 900; first compound 0.8 µM
  relative viability: 0.571
SW 900; first compound 2.53 µM
  relative viability: 0.546
SW 900; first compound 8 µM
  relative viability: 0.57
